Assays:
[1] = target: organic anion‐transporting polypeptide 1B1 (OATP1B1) (Homo sapiens, UniProt Q9Y6L6); test: OATP1B1 transporter inhibition in vitro; conditions: read-out: IC50, OATP1B1 inhibition, unpublished data
[2] = test system: leukotriene E4 levels in urine; conditions: healthy volunteers, first-in-human study; 95% CI 0.7-1.0 nM; read-out: IC50, reduction of endogenous leukotriene E4 levels in urine; cited from earlier work
healthy volunteers = test: Phase 1 crossover study: safety and tolerability (adverse events); format: in vivo, human
Method: Each participant received 5 single‐dose oral study treatments (A‐E), with a minimum washout period of 7 days between each treatment period.
The safety set included all participants who received treatment in the study and for whom any postdose safety data were available. Safety was assessed throughout the study by monitoring adverse events, vital signs (systolic and diastolic blood pressure, pulse rate, and body temperature), and electrocardiographic parameters and by conducting physical examinations and laboratory assessments (hematology, blood chemistry, and urinalysis).

CYP3A4 and CYP3A5 = conditions: in vitro; UGT 1A1, 1A3, 1A4 glucuronidation also contributes; cited from earlier work
CYP2C19 = conditions: in vitro; read-out: IC50, CYP2C19 inhibition; cited from earlier work

organic anion‐transporting polypeptide 1B1 (OATP1B1), sequence (Q9Y6L6 whole entry): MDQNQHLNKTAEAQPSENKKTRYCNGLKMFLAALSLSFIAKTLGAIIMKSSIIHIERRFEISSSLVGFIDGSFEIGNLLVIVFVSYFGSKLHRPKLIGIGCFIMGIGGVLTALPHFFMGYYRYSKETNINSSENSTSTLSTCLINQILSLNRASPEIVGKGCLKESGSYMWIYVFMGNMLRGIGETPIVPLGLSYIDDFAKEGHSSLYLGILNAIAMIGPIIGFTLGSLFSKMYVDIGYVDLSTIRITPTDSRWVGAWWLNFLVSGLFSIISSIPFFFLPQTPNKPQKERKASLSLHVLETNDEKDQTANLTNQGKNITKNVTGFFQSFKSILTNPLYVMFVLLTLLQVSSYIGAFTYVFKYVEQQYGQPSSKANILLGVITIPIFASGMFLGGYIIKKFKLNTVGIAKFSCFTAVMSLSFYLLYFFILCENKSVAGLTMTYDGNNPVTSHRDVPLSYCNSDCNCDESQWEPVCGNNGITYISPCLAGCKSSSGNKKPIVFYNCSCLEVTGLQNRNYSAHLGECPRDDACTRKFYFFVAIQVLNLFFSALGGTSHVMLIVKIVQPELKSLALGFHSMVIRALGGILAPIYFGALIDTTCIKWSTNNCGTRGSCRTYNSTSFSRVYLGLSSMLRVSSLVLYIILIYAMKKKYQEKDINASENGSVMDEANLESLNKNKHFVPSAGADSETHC

## Cc1cc(-c2ccc(C(=O)[C@@H]3CCCC[C@H]3C(=O)Nc3cnn4c3C(=O)NCC4)cc2)n[nH]1 [AZD5718]
[1]
  IC50: 2300 nM
[2]
  IC50: 0.8 nM
Healthy volunteers; all 5 treatment periods, 12 healthy men
  Deaths, serious adverse events, adverse events leading to discontinuation: No deaths, serious adverse events, or adverse events leading to discontinuation occurred
Healthy volunteers; human, in vivo
  Participants with any AE: 6 (50.0) n (%)
  Participants with dry skin: 1 (8.3) n (%)
  Participants with headache: 2 (16.7) n (%)
  Participants with hot flush: 1 (8.3) n (%)
  Participants with influenza-like illness: 1 (8.3) n (%)
  Participants with musculoskeletal pain: 1 (8.3) n (%)
  Participants with nasal congestion: 1 (8.3) n (%)
  Participants with nasopharyngitis: 1 (8.3) n (%)
  Participants with nausea: 1 (8.3) n (%)
  Participants with oropharyngeal pain: 1 (8.3) n (%)
  Participants with poor-quality sleep: 1 (8.3) n (%)
CYP3A4 and CYP3A5
  enzymes involved in metabolism: cytochrome P450 (CYP) 3A4 and CYP3A5 are involved in the metabolism
CYP2C19
  IC50: > 20000 nM
